Where two headings read alike, the source gives them in different places.
Tests used:
[1] = test system: Colorado Potato Beetle (CPB, Leptinotarsa decemlineata); experiment: Colorado Potato Beetle dipping bioassay (foliar method) with potato plants; assay type: in vivo; details: for Activity against CPB by potato plant dipping assay / Feeding damage protection of potato plants, Feeding Protection (%) / Feeding damage protection of potato plants (%), Control corrected: 100 ppm; for Feeding damage protection of potato plants, Feeding Protection (%) / Feeding damage protection of potato plants (%), Control corrected / mortality at 100 ppm: leaf dipping, 2nd instar CPB, 5 days after infest; for mortality at 100 ppm: Leptinotarsa decemlineata, foliar, 120 h
Description: 2. Method: Colorado Potato Beetle (CPB, Leptinotarsa decemlineata) Dipping Bioassay (Foliar Method) with Potato Plants Serial dilutions of TGAI are made in 50:50 (acetone: H2O) 0.01% kinetic solvent solution. Potato plant true leaves are snipped off the plant, treated by dipping method in a bowl with acetone-resistant plastic liner and inserted into a glass flask filled with water of the stem part to prevent dehydration of the leaves. Leaves are air-dried in hood, and transferred to petri dishes preset with a filter paper soaked with 2.5 ml water. The leaves are infested with five 2nd instar CPB per dish. 6 replicates/treatment and one rate (100 ppm)/test analog. Petri dishes are held for 5 days after infest at a […], 50% RH and 14/10 light/dark cycle in walk-in chamber. Both plant feeding damage and mortality of CPB were evaluated.

[2] = test system: Colorado Potato beetle, Leptinotarsa decimlineata; experiment: Field trial, foliar application on potato, feeding damage assessment; assay type: in vivo
Description: 1. Potato-Colorado Potato Beetle, Leptinotarsa decimlineata:
Foliar application: Field trials were set up. The plots were laid out in 5-meter rows with 4 replications. Applications of Compound I-R-1 was done. Feeding damage assessments were taken at 6, 15 and 20 days after application for the entire plot.

[3] = control corrected, read-out: Mortality of CPB (%), Control corrected
[4] = read-out: Mortality of CPB, Mortality (%)

SMILES | Activity against CPB by potato plant dipping assay [1] | Feeding damage protection of potato plants, Feeding Protection (%) [1] [%] | Feeding damage protection of potato plants (%), Control corrected ([1]; control corrected) [%] | mortality at 100 ppm [1, 3] [%] | mortality at 100 ppm [1, 4] [%] | Efficacy against L. decimlineata as foliar application in terms of reduction in feeding damage ([2]; foliar application (Table 2)) | Feeding damage (%) A06 ([2]; foliar treatment, 60 g ai/ha, 6 days after application, entire plot) [%] | Feeding damage (%) A15 ([2]; foliar treatment, 60 g ai/ha, 15 days after application, entire plot) [%] | Feeding damage (%) A20 ([2]; foliar treatment, 60 g ai/ha, 20 days after application, entire plot) [%]
C[n+]1c([O-])c(-c2ccccc2)c(=O)n2c1SCC2c1cnc(Cl)s1 (racemic) [Compound (I)] | active | 89.17 | 88.60 | 56.7 | 56.7 |  |  |  | 
C[n+]1c([O-])c(-c2ccccc2)c(=O)n2c1SC[C@@H]2c1cnc(Cl)s1 [Compound (I-R-1)] | active | 90.83 | 90.40 | 80 | 80 | good efficacy | 6.5 | 5.0 | 8.0
C[n+]1c([O-])c(-c2ccccc2)c(=O)n2c1CCC2c1cnc(Cl)s1 (stereo not drawn) [Compound C-6, reference compound] | inactive | 11.67 | 7.00 | 0 | 0 |  |  |  | 
C[n+]1c([O-])c(-c2ccccc2)c(=O)n2c1OCC2c1cnc(Cl)s1 (stereo not drawn) [Compound C-19, reference compound] | inactive | 5.00 | 0.00 | 3.33 | 3.33 |  |  |  | 

From patent publication US12532887B2, “Method for controlling pests of potato plants” (BASF SE, priority 2018, dated 2026)
